Laboratory results from patent US9266872B2, “2-hydroxyarylamide derivative or pharmaceutically acceptable salt thereof, preparation method thereof, and pharmaceutical composition for preventing or treating cancer containing same as active ingredient” (KOREA RESEARCH INSTITUTE OF BIOSCIENCE AND BIOTECHNOLOGY, priority 2011, dated 2016).
Like-named read-outs stand apart in the source and are kept apart here.

Experiments:
TMPRSS4 serine protease = target: T1, TMPRSS4 serine protease (Homo sapiens, UniProt Q9NRS4); experiment: Inhibitory effect on TMPRSS4 serine protease activity using peptide substrate; format: biochemical; conditions: kallikrein peptide substrate 100 μM, DMSO negative control; for Intracellular protease activity Inhibition % 10 uM / inhibition at 10 µM: 10 uM compound; for inhibition at 10 µM: read-out: Intracellular protease activity Inhibition % 10 uM; for inhibition at 30 µM / Intracellular protease activity Inhibition % 30 uM: 30 uM compound; for inhibition at 30 µM: read-out: Intracellular protease activity Inhibition % 30 uM; for inhibition at 100 µM: 100 uM compound, read-out: Intracellular protease activity Inhibition % 100 uM
T1 construct: TMPRSS4 serine protease domain (205th Val˜437th Leu) was cloned in pET21b/NdeI-XhoI; inferred from pET21b XhoI cloning and Ni-NTA purification) (C); made in house; host or cells: E. coli BL21 (DE3)
T1 sequence (Q9NRS4 205-437): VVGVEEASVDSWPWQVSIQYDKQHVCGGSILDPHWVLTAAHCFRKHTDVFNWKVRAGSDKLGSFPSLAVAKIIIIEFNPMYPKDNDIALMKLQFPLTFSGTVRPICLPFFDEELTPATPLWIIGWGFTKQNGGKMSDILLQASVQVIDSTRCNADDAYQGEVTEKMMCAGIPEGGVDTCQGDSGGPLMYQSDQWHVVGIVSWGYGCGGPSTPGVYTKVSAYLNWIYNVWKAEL
Experimental: TMPRSS4 serine protease domain (205th Val˜437th Leu) was cloned in pET21b/NdeI-XhoI, which was introduced in E. coli BL21 (DE3). At this time, FlagX2-enterokinase cleavage site ([…]; total 15 amino acids) was inserted in N-terminal of TMPRSS4 serine protease domain as shown in FIG. 1. The forward and reverse primers for PCR used for the cloning were presented by SEQ. ID. NO: 1 and NO: 2.
The cells were cultured in 10 ml of LB containing ampicillin at 37° C. overnight. IL of LB+ampicillin was added thereto, followed by further culture until OD reached 0.6˜0.8. 0.1 mM IPTG was added thereto, followed by further culture for 16 hours. Cell pellet was obtained, purified by Ni-NTA (Qiagen), and dialyzed. TMPRSS4 serine protease (pro-form) labeled with 2 mg of 2Xflag-enterokinase cleavage site was conjugated to Ni-NTA resin (4°, overnight). Enterokinase (NEB) was treated thereto at the concentration of 0.0002%/w/w at room temperature for 5 hours. The sample was washed, eluted with 50 mM imidazole in 20 mM of sodium phosphate buffer, and then dialyzed.
The protein activity was evaluated by measuring fluorescence shown during hydrolysis of the peptide. […] Reaction was induced after adding 100 μM of the peptide substrate into reaction buffer (50 mM Tris-HCl (pH 8.0), 10 mM CaCl2, 1 μM ZnCl2). Then, fluorescence was measured at 5 minutes interval (excitation 385 nm, emission 455 nm).
Then, fluorescence (excitation 385 nm/emission 455 nm) was measured at 5 minutes interval for 150 minutes. […] Dimethylsulfoxide (DMSO) was used as the negative control.

[1] = test system: TMPRSS4 over-expressing colorectal cancer cell line SW480; experiment: Inhibitory effect on infiltration of cancer cells over-expressing TMPRSS4 (matrigel trans-well); format: cell-based; conditions: Homo sapiens, read-out: Inhibition rate of target-expressing colorectal cancer cell activity (%, 0.1~2 uM)
Experimental: The cells were distributed in a 6-well plate at the density of 3×10^5 cells/well, followed by transfection. 48 hours later, the medium was replaced with a selection medium (800 μg/ml G418 medium). G418-resistant clone was separated, followed by culture for 2 weeks, during which selection was performed.
The cancer cell line constructed in step 1 was distributed in a 24-well trans-well plate (8 μm pore size; Costar, USA) whose porous membrane was coated with 100 μl of matrigel (BD Biosciences, USA) diluted with serum-free medium at the concentration of 250 μg/ml, which stood at room temperature for 1 hour for solidification. Lower chamber of the trans-well plate was coated with 100 μl of collagen type I (Sigma) at the concentration of 20 μg/ml. […] While culturing the cells in a 37, 5% CO2 incubator for 48 hours, cell migration from the upper chamber to lower chamber was allowed. […] The excessive crystal violet solution was washed away with distilled water. The migrated cell number was counted from 5 randomly selected areas (×200). The experiment was repeated at least twice under the same condition, and the representative result was presented.
The inhibitory effect of each compound on the infiltration of TMPRSS4 over-expressing colorectal cancer cell line SW480 was calculated by Mathematical Formula 1, which presents the number of infiltrated cells with % by the number of infiltrated cells in the negative control treated with DMSO. Infiltration Inhibition Rate (%)=100−Infiltrated cell number with the treatment of each compound/Infiltrated cell number with the treatment of DMSO×100 [Mathematical Formula 1]

[2] = SW480 over-expressing TMPRSS4, 48 hours

| SMILES | Intracellular protease activity Inhibition % 10 uM (TMPRSS4 serine protease) [%] | inhibition at 10 µM (TMPRSS4 serine protease) [%] | inhibition at 30 µM (TMPRSS4 serine protease) [%] | inhibition at 100 µM (TMPRSS4 serine protease) [%] | inhibition at 0.1 µM [1, 2] [%] | further results |
| --- | --- | --- | --- | --- | --- | --- |
| O=C(Nc1cc(Br)cc(C(F)(F)F)c1)c1cc(Cl)ccc1O [Example 22, N-(3-bromo-5-(trifluoromethyl)phenyl)-5-chloro-2-hydroxybenzamide] | 64 | 51 to 100 | 100 | 100 | 43 |  |
| N#Cc1ccc(NC(=O)c2cc(Cl)ccc2O)nc1 [Example 37, 5-chloro-N-(5-cyano-pyridine-2-yl)-2-hydroxy-benzamide] |  | 26 | 47 to 100 |  |  | Intracellular protease activity Inhibition % 30 uM (TMPRSS4 serine protease): 63%; inhibition at 5 µM ([1]; 5 uM, SW480 over-expressing TMPRSS4, 48 hours): 44% |
| O=C(Nc1cc(C(F)(F)F)c(Br)c(C(F)(F)F)c1)c1cc(Cl)ccc1O [Example 65, N-(4-bromo-3,5-bis(trifluoromethyl)phenyl)-5-chloro-2-hydroxybenzamide] | 58 | 51 to 100 |  |  | 53 | Intracellular protease activity Inhibition % 30 uM (TMPRSS4 serine protease): 85% |
| O=C(Nc1cc(C(F)(F)F)cc(C(F)(F)F)c1)c1cc([N+](=O)[O-])ccc1O [Example 55, N-(3,5-bis(trifluoromethyl)phenyl)-2-hydroxy-5-nitrobenzamide] |  | 33 | 78 |  | 26 |  |
| N#Cc1ccc(NC(=O)c2cc(Cl)ccc2O)cc1C(F)(F)F [Example 19, 5-chloro-N-(4-cyano-3-(trifluoromethyl)phenyl)-2-hydroxybenzamide] |  |  | 88 | 100 |  | inhibition at 2 µM ([1]; SW480, 48 h): 81% |
| O=C(Nc1nc(-c2ccccc2)cs1)c1cc(Cl)ccc1O [Example 53, 5-chloro-2-hydroxy-N-(4-phenylthiazole-2-yl)benzamide] |  |  | 91 | 98 | 34 | inhibition at 1 µM ([1]; 1 uM, SW480 over-expressing TMPRSS4, 48 hours): 56% |

The next lines start with results.

| Intracellular protease activity Inhibition % 10 uM (TMPRSS4 serine protease) [%] | inhibition at 10 µM (TMPRSS4 serine protease) [%] | inhibition at 30 µM (TMPRSS4 serine protease) [%] | inhibition at 100 µM (TMPRSS4 serine protease) [%] | SMILES | inhibition at 0.1 µM [1, 2] [%] | further results |
| --- | --- | --- | --- | --- | --- | --- |
|  |  | 75 | 100 | O=C(Nc1nnc(C(F)(F)F)s1)c1cc(Cl)ccc1O [Example 28, 5-chloro-2-hydroxy-N-(5-trifluoromethyl-[1,3,4]thiadiazole-2-yl)-benzamide] |  | inhibition at 2 µM ([1]; 2 uM, SW480 over-expressing TMPRSS4, 48 hours): 52% |
|  |  | 8 | 75 | O=C(Nc1cnc2ccccc2c1)c1cc(Cl)ccc1O [Example 25, 5-chloro-2-hydroxy-N-quinoline-3-yl-benzamide] |  | inhibition at 25 µM ([1]; 25 uM, SW480 over-expressing TMPRSS4, 48 hours): 51% |
| 71 | 51 to 100 | 95 | 99 | O=C(Nc1ccc(Cl)c(C(F)(F)F)c1)c1cc(Cl)ccc1O [Example 32, 5-chloro-N-(4-chloro-3-(trifluoromethyl)phenyl)-2-hydroxybenzamide] |  | inhibition at 0.8 µM [1, 2]: 68% |
| 51 | 51 to 100 | 94 |  | Cc1c(C(F)(F)F)cc(NC(=O)c2cc(Cl)ccc2O)cc1C(F)(F)F [Example 33, 5-chloro-2-hydroxy-N-(4-methyl-3,5-bis(trifluoromethyl)phenyl)benzamide] | 43 |  |
| 67 | 51 to 100 | 88 | 99 | COc1cc(NC(=O)c2cc(Cl)ccc2O)cc(C(F)(F)F)c1 [Example 6, 5-chloro-2-hydroxy-N-(3-methoxy-5-(trifluoromethyl)phenyl)benzamide] |  | inhibition at 0.8 µM [1, 2]: 49% |
